# According to US6136831A, “Pyrazole derivatives and COX inhibitors containing them” (Grelan Pharmaceutical Co., Ltd., priority 1997, dated 2000):
# Tests used:
# [1] = system: rat adjuvant-induced arthritis; experiment: Inhibitory Action on Adjuvant Arthritis (1) (Assay Example 2); type: in vivo, male Fisher rats; conditions: oral 5 mg/kg
# Procedure: Dry Mycobacterium butyricum killed organisms (Difco) were suspended in liquid paraffin to make the concentration 1% and the resulting suspension used as an adjuvant. The adjuvant (50 μl) was subplantarly injected to the right hind paw of male Fisher rats (5 to 6 animals per group) to raise arthritis. Each test compound was suspended in a 0.5% aqueous sodium carboxymethylcellulose (CMC-Na) solution and orally administered to the rats at a dose of 5 mg/kg on days 0, 3, 7, 10, 14, 17 and 20 (7 times in total) after the arthritis induction. On the 21st disease day the rats were measured for their body weight and the edema of their right and left hind paws. Simultaneously, systemic inflammatory states were scored. In addition, each of their spleen and thymus was taken out by excision to measure their wet weight and their relative weight per 100 g body weight was calculated.
# COX-2 [2] = target: T1, COX-2 (Ovis aries, UniProt P79208); experiment: Inhibitory Activity on COX-2 (Assay Example 1); type: biochemical; conditions: Table 1; for IC50: read-out: COX Inhibiting Activity IC50, COX-2
# T1 construct: purchased Cayman Chemical Co
# T1 sequence (P79208 17-603): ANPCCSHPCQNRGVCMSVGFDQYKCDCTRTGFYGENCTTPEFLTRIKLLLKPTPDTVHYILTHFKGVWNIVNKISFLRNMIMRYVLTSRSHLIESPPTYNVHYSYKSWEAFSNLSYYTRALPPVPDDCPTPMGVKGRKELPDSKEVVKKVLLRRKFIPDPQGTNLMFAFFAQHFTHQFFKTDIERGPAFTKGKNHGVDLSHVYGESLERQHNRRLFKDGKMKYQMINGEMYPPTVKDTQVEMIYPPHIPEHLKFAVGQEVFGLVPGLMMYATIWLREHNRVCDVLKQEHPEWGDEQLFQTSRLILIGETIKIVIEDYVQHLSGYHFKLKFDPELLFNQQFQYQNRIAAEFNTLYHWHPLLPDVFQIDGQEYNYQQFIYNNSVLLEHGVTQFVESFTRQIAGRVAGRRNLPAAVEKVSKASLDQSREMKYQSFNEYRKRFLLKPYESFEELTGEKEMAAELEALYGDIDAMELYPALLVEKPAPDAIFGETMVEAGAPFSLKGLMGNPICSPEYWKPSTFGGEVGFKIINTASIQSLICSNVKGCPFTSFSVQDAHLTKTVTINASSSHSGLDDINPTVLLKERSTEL
# COX-1 [3] = target: T2, COX-1 (Ovis aries, UniProt P05979); experiment: Inhibitory Activity on COX-1 (Assay Example 1); type: biochemical; conditions: Table 1; read-out: COX Inhibiting Activity IC50, COX-1
# T2 construct: purchased Cayman Chemical Co
# T2 sequence (P05979 25-600): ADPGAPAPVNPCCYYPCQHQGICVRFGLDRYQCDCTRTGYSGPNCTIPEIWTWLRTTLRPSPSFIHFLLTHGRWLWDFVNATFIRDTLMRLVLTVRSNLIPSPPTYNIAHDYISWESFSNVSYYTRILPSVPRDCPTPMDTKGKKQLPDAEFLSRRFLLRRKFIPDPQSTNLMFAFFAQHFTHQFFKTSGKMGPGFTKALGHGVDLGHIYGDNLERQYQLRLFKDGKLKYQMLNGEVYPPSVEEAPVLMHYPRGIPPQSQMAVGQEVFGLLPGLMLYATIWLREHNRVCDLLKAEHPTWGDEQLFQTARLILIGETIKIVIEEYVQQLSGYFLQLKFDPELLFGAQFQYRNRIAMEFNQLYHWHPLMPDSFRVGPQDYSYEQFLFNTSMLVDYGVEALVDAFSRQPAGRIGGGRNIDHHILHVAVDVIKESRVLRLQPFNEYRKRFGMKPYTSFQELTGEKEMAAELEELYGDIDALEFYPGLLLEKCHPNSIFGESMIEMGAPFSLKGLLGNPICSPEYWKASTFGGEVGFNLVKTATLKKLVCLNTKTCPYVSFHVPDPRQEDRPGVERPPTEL
# COX-2 [4] = target: T1, COX-2; experiment: Inhibitory Activity on COX-2 (Assay Example 5); type: biochemical; conditions: Table 4; for IC50: read-out: COX Inhibiting Activity IC50, COX-2
# COX-1 [5] = target: T2, COX-1; experiment: Inhibitory Activity on COX-1 (Assay Example 5); type: biochemical; conditions: Table 4; read-out: COX Inhibiting Activity IC50, COX-1
# [6] = system: adjuvant arthritis in rats; experiment: Inhibitory Action on Adjuvant Arthritis (2) (Assay Example 6); type: in vivo, male F344/Du (Fisher) rats; conditions: oral 1 mg/5 ml/kg daily, 17 days; for % Inhibition against Reduction of Gain in Body Weight / Edema Inhibition (%) Left Hind Paw (Non-inflamed Paw) / Edema Inhibition (%) Right Hind Paw (Inflamed Paw): measured next day; for % Inhibition against Change in Relative Weight, Spleen / % Inhibition against Change in Relative Weight, Thymus: relative weight per 100 g body weight; for Inflammation Score Inhibition (%): scored next day
# Procedure: A 1% dry Mycobacterium tuberculosis H37 RA killed organism suspension in liquid paraffin was employed as an adjuvant. The adjuvant suspension (50 μl) was subplantarly administered to the right hind paw of male F344/Du (Fisher) rats (5 to 6 animals per group) to raise arthritis. […] The next day after the final administration, the rats were measured for their body weight and the edema of their right and left hind paws. Simultaneously, systemic inflammatory states were scored. In addition, each of their spleen and thymus was taken out by excision to measure their wet weight and their relative weight per 100 g body weight was determined.
# [7] = 7 times, relative weight per 100 g body weight, day 21
# [8] = days 0, 3, 7, 10, 14, 17, 20, measured day 21
COX-1/COX-2 (ratio of IC50 values) (COX-2 [4]),IC50 (COX-2 [4]),IC50 (COX-1 [5]),Compound,further results
–,–,–,"CS(=O)(=O)c1ccc(-n2nc(C(F)(F)F)cc2-c2nc3cc(F)ccc3s2)cc1 [Example 4, 5-Fluoro-2-[1-(4-methylsulfonylphenyl)-3-trifluoromethyl-1H-pyrazol-5-yl]benzothiazole]","% Inhibition against Change in Relative Weight, Spleen [1, 7]: 2.9%; % Inhibition against Change in Relative Weight, Thymus [1, 7]: 148.9%; % Inhibition against Reduction of Gain in Body Weight [1, 8]: 78.7%; Edema Inhibition (%) Left Hind Paw (Non-inflamed Paw) [1, 8]: 91%; Edema Inhibition (%) Right Hind Paw (Inflamed Paw) [1, 8]: 83%; Inflammation Score Inhibition (%) ([1]; days 0, 3, 7, 10, 14, 17, 20, scored day 21): 100%"
–,–,–,"CS(=O)(=O)c1ccc(-n2nc(C(F)(F)F)cc2-c2nc3ccccc3s2)cc1 [Example 8, 2-[1-(4-Methylsulfonylphenyl)-3-trifluoromethyl-1H-pyrazol-5-yl]benzothiazole]",COX-1/COX-2 (ratio of IC50 values) (COX-2 [2]): > 294; IC50 (COX-2 [2]): 0.34 µM; IC50 (COX-1 [3]): > 100 µM
–,–,–,"CS(=O)(=O)c1ccc(-n2nc(C(F)(F)F)cc2-c2nc3ccc(Cl)cc3s2)cc1 [Example 10, 6-Chloro-2-[1-(4-methylsulfonylphenyl)-3-trifluoromethyl-1H-pyrazol-5-yl]benzothiazole]",COX-1/COX-2 (ratio of IC50 values) (COX-2 [2]): > 185; IC50 (COX-2 [2]): 0.54 µM; IC50 (COX-1 [3]): > 100 µM
–,–,–,"COc1ccc2nc(-c3cc(C(F)(F)F)nn3-c3ccc(S(N)(=O)=O)cc3)sc2c1 [Example 11, 4-[5-(6-Methoxybenzothiazol-2-yl)-3-trifluoromethyl-1H-pyrazol-1-yl]benzenesulfonamide]",COX-1/COX-2 (ratio of IC50 values) (COX-2 [2]): > 208; IC50 (COX-2 [2]): 0.48 µM; IC50 (COX-1 [3]): > 100 µM
> 1786,0.056 µM,> 100 µM,"NS(=O)(=O)c1ccc(-n2nc(C(F)(F)F)cc2-c2nc3ccccc3s2)cc1 [Example 14, 4-[5-(Benzothiazol-2-yl)-3-trifluoromethyl-1H-pyrazol-1-yl]-benzenesulfonamide]",–
> 172,0.58 µM,> 100 µM,"Cc1ccc2nc(-c3cc(C(F)(F)F)nn3-c3ccc(S(N)(=O)=O)cc3)sc2c1 [Example 16, 4-[5-(6-Methylbenzothiazol-2-yl)-3-trifluoromethyl-1H-pyrazol-5-yl]benzenesulfonamide]",–
> 625,0.16 µM,> 100 µM,"CS(=O)(=O)c1ccc(-n2nc(C(F)(F)F)cc2-c2nc3cccc(F)c3s2)cc1 [Example 17, 7-fluoro-2-[1-(4-methylsulfonylphenyl)-3-trifluoromethyl-1H-pyrazol-5-yl]benzothiazole]",–
> 625,0.16 µM,> 100 µM,"NS(=O)(=O)c1ccc(-n2nc(C(F)(F)F)cc2-c2nc3cccc(F)c3s2)cc1 [Example 18, 4-[5-(7-Fluorobenzothiazol-2-yl)-3-trifluoromethyl-1H-pyrazol-1-yl]benzenesulfonamide]","% Inhibition against Reduction of Gain in Body Weight [6]: 75%; Edema Inhibition (%) Left Hind Paw (Non-inflamed Paw) [6]: 116%; Edema Inhibition (%) Right Hind Paw (Inflamed Paw) [6]: 84%; % Inhibition against Change in Relative Weight, Spleen [6]: 48%; % Inhibition against Change in Relative Weight, Thymus [6]: 48%; Inflammation Score Inhibition (%) [6]: 91%"
386,0.057 µM,22 µM,"NS(=O)(=O)c1ccc(-n2nc(C(F)F)cc2-c2nc3ccccc3s2)cc1 [Example 21, 4-[5-(Benzothiazol-2-yl)-3-difluoromethyl-1H-pyrazol-1-yl]-benzenesulfonamide]",–
> 2000,0.05 µM,> 100 µM,"CS(=O)(=O)c1ccc(-n2nc(C(F)F)cc2-c2nc3ccc(F)cc3s2)cc1 [Example 22, 6-Fluoro-2-[1-(4-methylsulfonylphenyl)-3-difluoromethyl-1H-pyrazol-5-yl]benzothiazole]",–
> 909,0.11 µM,> 100 µM,"NS(=O)(=O)c1ccc(-n2nc(C(F)F)cc2-c2nc3ccc(F)cc3s2)cc1 [Example 23, 4-[5-(6-Fluorobenzothiazol-2-yl)-3-difluoromethyl-1H-pyrazol-1-yl]benzenesulfonamide]",–
21,0.086 µM,1.8 µM,"NS(=O)(=O)c1ccc(-n2nc(C(F)F)cc2-c2nc3ccc(Cl)cc3s2)cc1 [Example 24, 4-[5-(6-Chlorobenzothiazol-2-yl)-3-difluoromethyl-1H-pyrazol-1-yl]benzenesulfonamide]",–
> 250,0.4 µM,> 100 µM,"COc1ccc2nc(-c3cc(C(F)F)nn3-c3ccc(S(N)(=O)=O)cc3)sc2c1 [Example 25, 4-[3-Difluoromethyl-5-(6-methoxybenzothiazol-2-yl)-1H-pyrazol-5-yl]benzenesulfonamide]",–
> 769,0.13 µM,> 100 µM,"Cc1ccc2nc(-c3cc(C(F)F)nn3-c3ccc(S(C)(=O)=O)cc3)sc2c1 [Example 26, 6-Methyl-2-[1-(4-methylsulfonylphenyl)-3-difluoromethyl-1H-pyrazol-5-yl]benzothiazole]",–
623,0.053 µM,33 µM,Cc1ccc2nc(-c3cc(C(F)F)nn3-c3ccc(S(N)(=O)=O)cc3)sc2c1 [Example 27],–
> 1190,0.084 µM,> 100 µM,"CS(=O)(=O)c1ccc(-n2nc(C(F)F)cc2-c2nc3cccc(F)c3s2)cc1 [Example 28, 7-Fluoro-2-[1-(4-methylsulfonylphenyl)-3-difluoromethyl-1H-pyrazol-5-yl]benzothiazole]",–
> 8333,0.012 µM,> 100 µM,"NS(=O)(=O)c1ccc(-n2nc(C(F)F)cc2-c2nc3cccc(F)c3s2)cc1 [Example 29, 4-[5-(7-Fluorobenzothiazol-2-yl)-3-difluoromethyl-1H-pyrazol-1-yl]benzenesulfonamide]","% Inhibition against Reduction of Gain in Body Weight [6]: 73%; Edema Inhibition (%) Left Hind Paw (Non-inflamed Paw) [6]: 124%; Edema Inhibition (%) Right Hind Paw (Inflamed Paw) [6]: 82%; % Inhibition against Change in Relative Weight, Spleen [6]: 25%; % Inhibition against Change in Relative Weight, Thymus [6]: 80%; Inflammation Score Inhibition (%) [6]: 86%"
> 417,0.24 µM,> 100 µM,"Cc1cccc2nc(-c3cc(C(F)F)nn3-c3ccc(S(N)(=O)=O)cc3)sc12 [Example 31, 4-[3-Difluoromethyl-5-(7-methylbenzothiazol-2-yl)-1H-pyrazol-1-yl]benzenesulfonamide]",–
> 270,0.37 µM,> 100 µM,"Cc1ccc2nc(-c3cc(C(F)(F)C(F)(F)F)nn3-c3ccc(S(C)(=O)=O)cc3)sc2c1 [Example 32, 6-Methyl-2-[1-(4-methylsulfonylphenyl)-3-pentafluoroethyl-1H-pyrazol-5-yl]benzothiazole]",–
> 769,0.13 µM,> 100 µM,"Cc1ccc2nc(-c3cc(C(F)(F)C(F)(F)F)nn3-c3ccc(S(N)(=O)=O)cc3)sc2c1 [Example 33, 4-[5-(6-Methylbenzothiazol-2-yl)-3-pentafluoroethyl-1H-pyrazol-5-yl]benzenesulfonamide]",–
> 417,0.24 µM,> 100 µM,NS(=O)(=O)c1ccc(-n2nc(C(F)F)cc2-c2nc3c(F)cccc3s2)cc1 [Example 41],–
